Test results published in US11485728B2, “Small molecules for the treatment of autoimmune diseases and cancer” (Athos Therapeutics, Inc., priority 2020, dated 2022).

Assays:
CYP2C8 = molecular target: T1, CYP2C8 (Homo sapiens, UniProt P10632); test: CYP-direct inhibition, CYP2C8; type: in vitro ADME
T1 construct: from tissue; host or cells: pooled human liver microsomes
T1 sequence (P10632 1-490): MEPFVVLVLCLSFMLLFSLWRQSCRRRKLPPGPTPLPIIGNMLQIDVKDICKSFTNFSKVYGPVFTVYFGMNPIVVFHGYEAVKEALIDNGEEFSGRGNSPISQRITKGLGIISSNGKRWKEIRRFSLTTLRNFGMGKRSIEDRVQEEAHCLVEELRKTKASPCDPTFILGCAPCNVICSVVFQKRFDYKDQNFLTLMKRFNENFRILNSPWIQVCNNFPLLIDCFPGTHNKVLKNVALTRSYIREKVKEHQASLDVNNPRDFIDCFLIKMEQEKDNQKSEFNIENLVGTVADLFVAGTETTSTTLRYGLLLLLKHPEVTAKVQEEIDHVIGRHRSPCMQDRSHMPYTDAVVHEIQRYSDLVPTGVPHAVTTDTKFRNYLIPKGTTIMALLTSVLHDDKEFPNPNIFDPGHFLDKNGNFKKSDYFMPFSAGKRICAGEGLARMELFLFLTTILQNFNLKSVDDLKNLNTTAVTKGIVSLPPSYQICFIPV
Protocol: Many drugs inhibit cytochrome P450 enzymes to cause clinically significant changes in the pharmacokinetics of other drugs. In vitro cytochrome P450 inhibition, can provide crucial information in evaluating potential clinical drug-drug interactions and is useful for focusing in vivo tests to areas of concern. The cytochrome P450 inhibition assay was developed by preparing a working cocktail solution consisting of six probe substrates 10 μM ethoxy-resorufin (CYP1A2), 100 μM rosiglitazone (CYP2C8), 50 μM diclofenac (CYP2C9), 300 μM S-mephenytoin (CYP2C19), 50 μM dextromethorphan (CYP2D6), and 20 μM midazolam (CYP3A4). A mixture solution consists of 140 uL of 0.286 mg/mL of pooled human liver microsome working solution and 20 uL working solutions of test articles, standard control inhibitors, or positive control placebo and 20 uL of substrate cocktail mixture working solution was prepared. The mixture solution was pre-warm in a gentle shaking bath at 37±2° C. for 5 minutes. The enzymatic reaction started by adding 20 uL of NRS working solution to the mixture solution and incubated for 10 minutes at 37±2° C. To stop the reaction, an addition of 400 μL cold stop solution (acetonitrile containing 50 ng/mL Tolbutamide as an internal standard (I.Std.) was added to the mixture solution. The final concentration of test article, inhibitors, substrates, and cofactors are noted in Table 0.1 below. Two individual samples were prepared for each test compound. The extracted samples were vortexed and then centrifuged at 4500 rpm for 7 minutes using Eppendorf Centrifuge 5910R. 200 uL of supernatant was diluting with 200 uL of 50% Methanol into 96-DW plate for LC/MS/MS analysis
Concentration-response plots are used to determine the effects of an inhibitor on an enzymatic reaction. A typical concentration-response plot provides fractional activity (Y axis) is plotted as a function of log inhibitor concentration (X axis). The data are fitted using a standard Sigmoidal dose-response equation which is also called a […] logistic equation. The concentration of compound that results in 50% inhibition of maximal activity is termed as the IC50 (inhibitor concentration yielding 50% inhibition). IC50 value is calculated using Prism GraphPad software, version 9. […].
Cytochrome P450 inhibition of a drug is a key factor in determining pharmacokinetic drug-drug interactions. The objective of this study was to evaluate the inhibition potential of G9a inhibitors on six (6) major human cytochrome P450 enzymes, including CYP1A2, CYP2C8, CYP2C9, CYP2C19, CYP2D6, and CYP3A4. Inhibition was determined by using a substrate cocktail and analyzing the rate of specific metabolites formation. The cytochrome P450 inhibition assay was developed using a cocktail consisting of six (6) probe substrates ethoxy-resorufin (CYP1A2), rosiglitazone (CYP2C8), diclofenac (CYP2C9), S-mephenytoin (CYP2C19), dextromethorphan (CYP2D6), and midazolam (CYP3A4). The cocktail was incubated in human liver microsome with NADPH regenerating system (NRS) in a shaking bath at 37±2° C. The formation of specific metabolites was monitored by LC/MS/MS. Test compound was added to the cocktail-liver microsome mixture at varying concentrations and its effect on cytochrome P450 activity was determined by analyzing the rate of specific metabolite formation. The percent inhibition was calculated and plotted with reference to the concentration, and the IC50 value for inhibition was derived by fitting the data with a using log(inhibitor) vs. normalized response with variable slope least squares fit by Graphpad Prism® software. […].

[1] = tested on: C57BL/6 mice with DSS colitis; test: DSS colitis in C57BL/6 mice; type: in vivo; conditions: for Clinical Score: includes weight, bleeding, diarrhea, rectal prolapse; for protection against colitis induced weight loss / colitis-induced weight loss / colon length shortening: daily oral gavage; for protection against colitis induced weight loss: after d11; for colitis-induced weight loss / colon length shortening: d12; as to Clinical Score: key: −: indicates no statistically significant effect in the variable measured when compared with the control group; +: indicates a statistically significant difference in the variable measured when compared with the control group; ++: indicates measurements that include multiple variables in the calculation of their differences when compared with the control group, and represents the presence of significant changes across all variable measurements
Protocol: Dextran sodium sulfate (DSS) was added to the water 24 hrs after compound administration and weight was measured daily.
C57BL/6 mice (20-22 grams) were fed ad lib and assigned to 4 different groups (n=8/group). […] A control group received vehicle alone. After 24 hrs, mice were weighed and DSS was added to their drinking water. Mice were then treated with the test compounds and weighed daily and the DSS water was replenished every 72 hrs for 5 days, at which point, it was replaced by regular drinking water. Mice were sacrificed on day twelve and clinical scored was assessed. Intestinal tissue for and blood were also collected. Tissues were either flash frozen and kept in −80° C. for RNA and protein isolation or placed in 10% formalin solution for future histological analysis. Blood was spun at 5K rpm for 5 min and serum was collected and kept at −20° C. for multiplex cytokine analysis.
DSS colitis mouse model: C57BL/6 mice (20-22 grains) are fed ad lib and assigned to different groups (n=8/group). […] A control group receives vehicle alone. After 24 h, mice are weighed and DSS is added to their drinking water. Mice are then treated with the test compounds and weighed daily and the DSS water is replenished every 72 liars for 5 days, at which point, it is replaced by regular drinking water. Mice are sacrificed on day twelve and clinical scored was assessed. Intestinal tissue for and blood are also collected. Tissues are either flash frozen and kept in −80° C. for RNA and protein isolation or placed in 10% formalin solution for future histological analysis.

A-498 = A-498 kidney cancer cell viability (Real-Time-Glo); type: cell-based; conditions: Homo sapiens, A498; 72 hr; read-out: IC50, Cell line: A-498
Protocol: To determine the plating density for cell viability assays, for each cell line, cells were counted and diluted to final densities of 2.5, 5, 10 and 20 thousand per 100 μl of their respective growth media per well in 96 well plates. A Promega Real-Time-Glo cell viability kit was used to determine the optimal concentration for cell plating so that each cell line would be within the linear part of its growth curve after 72 hrs in culture. For the determination of test compound IC50s different cancer cell lines were plated in 96 well plates in the pre-determined optimal density for each cell line. Test compounds were then added at different concentrations for the creation of six-point curve and cell density was determined using the Promega Real-Time-Glo cell viability kit after 24, 48, and 72 hrs in culture. Test compound 72 hr IC50s were calculated using the AAT Bioquest IC50 calculator.

[2] = 25 mg/kg PO daily, sacrificed day twelve
[3] = 50 mg/kg daily oral, d12 after DSS induction, vs vehicle

SMILES	IC50 (CYP2C8) [µM]	effect on the effects of DSS colitis (in words) ([1]; 25 mg/kg PO daily)	Colon Length ([1]; 25 mg/kg PO daily, day twelve)	Clinical Score ([1]; 25 mg/kg PO daily, day twelve)	DSS Efficacy [1, 2]	IC50 (A-498) [µM]	also measured
COc1cc2c(NC3CCS(=O)(=O)CC3)nc(N3CCC(F)(F)CC3)nc2cc1OCCCN1CCCC1 [Compound 1, 4-((2-(4,4-difluoropiperidin-1-yl)-6-methoxy-7-(3-(pyrrolidin-1-yl)propoxy)quinazolin-4-yl)amino)tetrahydro-2H-thiopyran 1,1-dioxide]	89.1	alleviation of the effects of DSS colitis	+	+	+		DSS-induced weight loss ([1]; 50 mg/kg daily oral): resulted in increased weight; Colon Length [1, 3]: increased; protection against colitis induced weight loss [1]: significant protection against colitis induced weight loss; colitis-induced weight loss ([1]; vs vehicle): significantly prevented; colon length shortening ([1]; vs vehicle): significantly prevented
COc1cc2c(NC3CCOCC3)nc(N3CCC(F)(F)CC3)nc2cc1OCCCN1CCCC1 [Compound 2, 2-(4,4-difluoropiperidin-1-yl)-6-methoxy-7-(3-(pyrrolidin-1-yl)propoxy)-N-(tetrahydro-2H-pyran-4-yl)quinazolin-4-amine]	20.4	alleviation of the effects of DSS colitis	++	++	++		effect on overall efficacy, clinical score and colon length (in words) ([1]; 25 mg/kg PO daily): very strong effect; protection against colitis induced weight loss [1]: significant protection against colitis induced weight loss; colitis-induced weight loss ([1]; vs vehicle): significantly prevented; colon length shortening ([1]; vs vehicle): significantly prevented
COCCN1CCC(Nc2nc(N3CCC(F)(F)CC3)nc3cc(OCCCN4CCCC4)c(OC)cc23)CC1 [Compound 3, 2-(4,4-difluoropiperidin-1-yl)-6-methoxy-N-(1-(2-methoxyethyl)piperidin-4-yl)-7-(3-(pyrrolidin-1-yl)propoxy)quinazolin-4-amine]	> 100					5 to 10	
COc1cc2c(NCC3CCN(C)CC3)nc(N3CCC(F)(F)CC3)nc2cc1OCCCN1CCCC1 [Compound 5, 2-(4,4-difluoropiperidin-1-yl)-6-methoxy-N-((1-methylpiperidin-4-yl)methyl)-7-(3-(pyrrolidin-1-yl)propoxy)quinazolin-4-amine]	> 100	alleviation of the effects of DSS colitis	+	+	+		
COc1cc2c(Nc3ccncc3)nc(N3CCC(F)(F)CC3)nc2cc1OCCCN1CCCC1 [Compound 7, 2-(4,4-difluoropiperidin-1-yl)-6-methoxy-N-(pyridin-4-yl)-7-(3-(pyrrolidin-1-yl)propoxy)quinazolin-4-amine]	75.7					1 to 5	DSS Efficacy ([1]; 25 mg/kg PO daily, day twelve): −
COc1cc2c(NC3CCN(C(C)C)CC3)nc(-n3ccnc3)nc2cc1OCCCN1CCCC1 [Compound 156, 2-(1H-imidazol-1-yl)-N-(1-isopropylpiperidin-4-yl)-6-methoxy-7-(3-(pyrrolidin-1-yl)propoxy)quinazolin-4-amine]	> 100					5 to 10	
COc1cc2c(NC3CCOCC3)nc(N3CCCC3)nc2cc1OCCCN1CCCC1 [Compound 164, 6-methoxy-2-(pyrrolidin-1-yl)-7-(3-(pyrrolidin-1-yl)propoxy)-N-(tetrahydro-2H-pyran-4-yl)quinazolin-4-amine]	91.8						DSS Efficacy ([1]; 25 mg/kg PO daily, day twelve): ++
COc1cc2c(NC3CCN(C(C)C)CC3)nc(N3CCC3)nc2cc1OCCCN1CCCC1 [Compound 234, 2-(azetidin-1-yl)-N-(1-isopropylpiperidin-4-yl)-6-methoxy-7-(3-(pyrrolidin-1-yl)propoxy)quinazolin-4-amine]	> 100					5 to 10	
COc1cc2c(NC3CCN(C(C)C)CC3)nc(C#N)nc2cc1OCCCN1CCCC1 [Compound 235, 4-((1-isopropylpiperidin-4-yl)amino)-6-methoxy-7-(3-(pyrrolidin-1-yl)propoxy)quinazoline-2-carbonitrile]	> 100					5 to 10	
COc1cc2c(NC3CCN(C(C)C)CC3)nc(N3CCC(F)(F)CC3)nc2cc1OCCCN1CCCC1 [Compound 400, 2-(4,4-difluoropiperidin-1-yl)-N-(1-isopropylpiperidin-4-yl)-6-methoxy-7-(3-(pyrrolidin-1-yl)propoxy)quinazolin-4-amine, reference compound]	> 100	no effect	−	−	−	10 to 20	DSS-induced weight loss ([1]; 50 mg/kg daily oral): failed to increase DSS-induced weight loss; Colon Length [1, 3]: not
